Target: T1, FLAG-p7 (HCV p7, genotype 1b) (Hepatitis C virus isolate HC-J4, UniProt O92972)
T1 sequence (O92972 747-809 limits assumed): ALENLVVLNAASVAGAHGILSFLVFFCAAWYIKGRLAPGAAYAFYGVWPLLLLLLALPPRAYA
Experiment: carboxyfluorescein release from liposomes, fluorimetry, initial rates
Assay type: biochemical

NC12CC3CC(CC(C3)C1)C2 [amantadine]
IC50: ~2 µM
